Tests used:
Assay in all cases: Glasshouse herbicide test, pre- and post-emergence
Assay type in all cases: in vivo
[1] = tested on: Alopecurus myosuroides (ALOMY); conditions: 250 g/h, evaluated after 13 days, five-point scale; for percentage damage caused to the plant, ALOMY POST: post-emergence; for percentage damage caused to the plant, ALOMY PRE: pre-emergence
Procedure, shortened: (§1)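 Percentage plant damage, scored 13 days after treatment as 5=80-100%, 4=60-79%, 3=40-59%, 2=20-39%, 1=0-19%. Spray of 250 g/h in acetone/water 50:50 plus 0.5% Tween 20 went on one day (pre-emergence) or eight days (post-emergence) after sowing.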

[2] = tested on: Avena fatua (AVEFA); conditions: 250 g/h, evaluated after 13 days, five-point scale; for percentage damage caused to the plant, AVEFA POST: post-emergence; for percentage damage caused to the plant, AVEFA PRE: pre-emergence
Procedure, shortened: as §1

[3] = tested on: Echinochloa crus-galli (ECHCG); conditions: 250 g/h, evaluated after 13 days, five-point scale; for percentage damage caused to the plant, ECHCG POST: post-emergence; for percentage damage caused to the plant, ECHCG PRE: pre-emergence
Procedure, shortened: as §1

[4] = tested on: Lolium perenne (LOLPE); conditions: 250 g/h, evaluated after 13 days, five-point scale; for percentage damage caused to the plant, LOLPE POST: post-emergence; for percentage damage caused to the plant, LOLPE PRE: pre-emergence
Procedure, shortened: as §1

[5] = tested on: Setaria faberi (SETFA); conditions: 250 g/h, evaluated after 13 days, five-point scale; for percentage damage caused to the plant, SETFA POST: post-emergence; for percentage damage caused to the plant, SETFA PRE: pre-emergence
Procedure, shortened: as §1

Row | Structure (SMILES) | percentage damage caused to the plant, ALOMY POST [1] | percentage damage caused to the plant, ALOMY PRE [1] | percentage damage caused to the plant, AVEFA POST [2] | percentage damage caused to the plant, AVEFA PRE [2] | percentage damage caused to the plant, ECHCG POST [3] | percentage damage caused to the plant, ECHCG PRE [3] | percentage damage caused to the plant, LOLPE POST [4] | percentage damage caused to the plant, LOLPE PRE [4] | percentage damage caused to the plant, SETFA POST [5] | percentage damage caused to the plant, SETFA PRE [5]
1 | CC#Cc1cc(C)c(C2C(=O)CC3(CCC(NC(=O)NC(C)(C)C)CC3)CC2=O)c(C)c1 (stereo not drawn) [Compound 2.021] | 5 (5=80-100%) | 5 (5=80-100%) | 5 (5=80-100%) | 4 (4=60-79%) | 5 (5=80-100%) | 5 (5=80-100%) | 5 (5=80-100%) | 5 (5=80-100%) | 5 (5=80-100%) | 5 (5=80-100%)
2 | CC#Cc1cc(C)c(C2C(=O)CC3(CCC(NC(=O)NC(=O)C(C)(C)C)CC3)CC2=O)c(C)c1 (stereo not drawn) [Compound 2.022] | 5 (5=80-100%) | 5 (5=80-100%) | 5 (5=80-100%) | 3 (3=40-59%) | 5 (5=80-100%) | 5 (5=80-100%) | 5 (5=80-100%) | 5 (5=80-100%) | 5 (5=80-100%) | 5 (5=80-100%)
3 | CC#Cc1cc(C)c(C2C(=O)CC3(CCC(NC(=O)NC(=O)c4ccccn4)CC3)CC2=O)c(C)c1 (stereo not drawn) [Compound 2.023] | 5 (5=80-100%) | 5 (5=80-100%) | 5 (5=80-100%) | 4 (4=60-79%) | 5 (5=80-100%) | 5 (5=80-100%) | 5 (5=80-100%) | 5 (5=80-100%) | 5 (5=80-100%) | 5 (5=80-100%)
4 | CC#Cc1cc(C)c(C2C(=O)CC3(CCC(NC(C)=O)C3)CC2=O)c(C)c1 (stereo not drawn) [Compound 2.024] | 5 (5=80-100%) | 5 (5=80-100%) | 5 (5=80-100%) | 5 (5=80-100%) | 5 (5=80-100%) | 5 (5=80-100%) | 5 (5=80-100%) | 5 (5=80-100%) | 5 (5=80-100%) | 5 (5=80-100%)
5 | CC#Cc1cc(C)c(C2C(=O)CC3(CC2=O)CC(NC(C)=O)C3)c(C)c1 (stereo not drawn) [Compound 2.025] | 5 (5=80-100%) | 5 (5=80-100%) | 5 (5=80-100%) | 5 (5=80-100%) | 5 (5=80-100%) | 5 (5=80-100%) | 5 (5=80-100%) | 5 (5=80-100%) | 5 (5=80-100%) | 5 (5=80-100%)
6 | CC(=O)NC1CCC2(CC1)CC(=O)C(c1c(C)cc(-c3ccc(F)cc3)cc1C)C(=O)C2 (stereo not drawn) [Compound 2.027] | 5 (5=80-100%) | 3 (3=40-59%) | 5 (5=80-100%) | 4 (4=60-79%) | 5 (5=80-100%) | 2 (2=20-39%) | 5 (5=80-100%) | 4 (4=60-79%) | 5 (5=80-100%) | 5 (5=80-100%)
7 | CC(=O)NC1CCC2(CC1)CC(=O)C(c1c(C)cc(-c3ncc(F)cn3)cc1C)C(=O)C2 (stereo not drawn) [Compound 2.028] | 5 (5=80-100%) | 5 (5=80-100%) | 5 (5=80-100%) | 4 (4=60-79%) | 5 (5=80-100%) | 5 (5=80-100%) | 5 (5=80-100%) | 5 (5=80-100%) | 5 (5=80-100%) | 5 (5=80-100%)
8 | Cc1cc(-c2ccc(C#N)cn2)cc(C)c1C1C(=O)CC2(CCC(NC(=O)C3CC3)CC2)CC1=O (stereo not drawn) [Compound 2.029] | 5 (5=80-100%) | 2 (2=20-39%) | 5 (5=80-100%) | 4 (4=60-79%) | 5 (5=80-100%) | 5 (5=80-100%) | 5 (5=80-100%) | 5 (5=80-100%) | 5 (5=80-100%) | 5 (5=80-100%)
9 | CC(=O)NC1CCC2(CC1)CC(=O)C(c1c(C)cc(-c3ccc(C#N)cn3)cc1C)C(=O)C2 (stereo not drawn) [Compound 2.030] | 5 (5=80-100%) | 4 (4=60-79%) | 5 (5=80-100%) | 5 (5=80-100%) | 5 (5=80-100%) | 5 (5=80-100%) | 5 (5=80-100%) | 5 (5=80-100%) | 5 (5=80-100%) | 5 (5=80-100%)
10 | CC(=O)NC1CCC2(CC1)CC(=O)C(c1c(C)cc(-c3ncc(F)cc3F)cc1C)C(=O)C2 (stereo not drawn) [Compound 2.031] | 5 (5=80-100%) | 5 (5=80-100%) | 5 (5=80-100%) | 5 (5=80-100%) | 5 (5=80-100%) | 5 (5=80-100%) | 5 (5=80-100%) | 5 (5=80-100%) | 5 (5=80-100%) | 5 (5=80-100%)
11 | CC(=O)NC1CCC2(CC1)CC(=O)C(c1c(C)cc(-c3ccc(F)cn3)cc1C)C(=O)C2 (stereo not drawn) [Compound 2.032] | 5 (5=80-100%) | 5 (5=80-100%) | 5 (5=80-100%) | 4 (4=60-79%) | 5 (5=80-100%) | 5 (5=80-100%) | 5 (5=80-100%) | 5 (5=80-100%) | 5 (5=80-100%) | 5 (5=80-100%)
12 | CC#Cc1cc(C)c(C2=C(OC(=O)OC)CC3(CCC(C(=O)NC)CC3)CC2=O)c(C)c1 (stereo not drawn) [Compound P1.001] | 5 (5=80-100%) | 5 (5=80-100%) | 5 (5=80-100%) | 5 (5=80-100%) | 5 (5=80-100%) | 5 (5=80-100%) | 5 (5=80-100%) | 5 (5=80-100%) | 5 (5=80-100%) | 5 (5=80-100%)

Source: patent US12319640B2, “Cyclic diones as herbicidal compounds” (SYNGENTA CROP PROTECTION AG, priority 2019, dated 2025)
